Assay results reported in patent publication US20110171193A1, “COMPOSITIONS AND METHODS FOR TREATING PULMONARY HYPERTENSION” (THE BOARD OF TRUSTEES OF THE UNIVERSITY OF ILLINOIS, priority 2008, published 2011).
Substitutions are numbered along the chain they refer to. Entries after “also recorded” stand apart in the source; their conditions may differ.

Legend:
purified PKG-1 = target: T1, purified PKG-1 (Bos taurus, UniProt P00516); assay: In vitro kinase assay of purified PKG-1 after peroxynitrite or DETA NONOate; type: biochemical; conditions: even at 100 μM, 30 min in dark at RT
T1 construct: purchased Promega
T1 sequence (P00516 1-671): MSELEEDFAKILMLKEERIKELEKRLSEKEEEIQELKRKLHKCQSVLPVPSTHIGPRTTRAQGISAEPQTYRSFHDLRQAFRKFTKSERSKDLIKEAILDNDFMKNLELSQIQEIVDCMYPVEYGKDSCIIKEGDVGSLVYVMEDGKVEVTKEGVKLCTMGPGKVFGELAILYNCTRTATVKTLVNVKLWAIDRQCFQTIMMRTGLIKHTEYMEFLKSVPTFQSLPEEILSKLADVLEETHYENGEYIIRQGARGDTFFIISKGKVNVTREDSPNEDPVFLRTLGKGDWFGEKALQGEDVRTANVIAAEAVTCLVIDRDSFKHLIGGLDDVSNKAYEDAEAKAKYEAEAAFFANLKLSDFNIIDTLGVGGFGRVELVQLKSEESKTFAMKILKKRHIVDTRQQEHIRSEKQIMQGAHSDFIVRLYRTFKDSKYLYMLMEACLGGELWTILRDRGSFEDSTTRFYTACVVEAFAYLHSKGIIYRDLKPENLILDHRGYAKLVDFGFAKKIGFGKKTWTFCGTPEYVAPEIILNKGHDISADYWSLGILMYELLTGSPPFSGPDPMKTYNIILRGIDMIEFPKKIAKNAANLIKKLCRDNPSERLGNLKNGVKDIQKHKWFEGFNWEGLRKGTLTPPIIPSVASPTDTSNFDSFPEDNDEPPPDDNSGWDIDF
Method: (§1) PKG Kinase Assay. In vitro activity of PKG was determined by measuring the transfer of the [g-^32P] phosphate group of ATP to the specific PKG substrate, BPDEtide (Calbiochem) in the absence or presence of exogenous 2.5 mM cGMP as described in Example 13. PKG activity is expressed as picmoles of ^32P incorporated into PKG substrate per min per microgram protein.
To address the role of peroxynitrite in the mechanism of the observed impairment of PKG activity, we treated human pulmonary artery smooth muscle cells with 3-morpholinosydnonimine (SIN-1), the superoxide and NO donor that forms peroxynitrite simultaneously (30). […] FIG. 9A relates to dose-dependent impairment of PKG activity by peroxynitrite. Purified […] (Promega) was incubated with peroxynitrite at indicated concentrations for 14 min at RT or with DETA NONOate (NONOate) for 30 min in dark at RT. Kinase activity was then assayed. Data is expressed mean+/−SD (n=3). *, P<0.05 versus control (0 μM). FIG. 9B relates to screening of PKG-1a mutants with in vitro kinase assay. At 48 hr post-transfection, myc-tagged WT and PKG-1a mutants were immunoprecipitated with anti-myc beads and aliquoted for incubation with either peroxynitrite (100 μM) or the same amount of 0.1 N NaOH only (CTL). […] PKG activity was expressed as pmoles/min/μg cell lysates. […] Data are expressed as mean±SD (n=3), *, P<0.05 versus either PKG-1a mutant. […]

PKG-I = target: T2, PKG-I (Homo sapiens, UniProt Q13976); assay: PKG-I tyrosine nitration in human pulmonary artery smooth muscle cells after SIN-1 (IP / anti-nitrotyrosine Western blot); type: cell-based
T2 construct: primary cultures of human pulmonary artery smooth muscle cells were immunoprecipitated overnight with anti-PKG-I; endogenous in cells; host or cells: primary human pulmonary artery smooth muscle cells
T2 sequence (Q13976 1-671): T1 sequence (P00516 1-671) with K265T, N275S
Method: Western blot analyses were performed using anti-Cav1 (1:1000, Santa Cruz Biotechnology), anti-eNOS (1:1000, Upstate Biotechnology), and anti-PKG-I (1 mg/ml, a generous gift from Dr. X-P. Du at Department of Pharmacology, University of Illinois at Chicago). The same blots were reprobed with either anti-a-actin (1:400, Santa Cruz Biotechnology) or anti-GAPDH (1:2000, Santa Cruz Biotechnology) as a loading control. To detect PKG-I tyrosine nitration, protein lysates from either mouse lungs or primary cultures of human pulmonary artery smooth muscle cells were immunoprecipitated overnight with anti-PKG-I and then probed with anti-nitrotyrosine (1:2500, Cayman Chemical).
(§2) To test the hypothesis that peroxynitrite modifies PKG through tyrosine nitration thereby impairing kinase activity, we treated subconfluent human pulmonary artery smooth muscle cells with 3-morpholinosydnonimine (SIN-1), a donor of superoxide and NO, which spontaneously forms peroxynitrite at the two concentrations used. […] Each cell lysate (50 mg) was used for immunoprecipitation with an anti-PKG-I antibody and tyrosine nitration of PKG-I was detected by Western blot with anti-nitrotyrosine antibody (NT). Each lysate (15 mg) was used for direct immunoblotting with anti-PKG-I and anti-GAPDH, respectively. CTL, control. […] Data are shown as mean±SD (n=3). *, P<0.001 versus CTL; **, P<0.001 versus CTL.
Molecular Analysis. […]

PKG = target: T3, PKG (Homo sapiens, UniProt Q13976); assay: PKG kinase activity in human pulmonary artery smooth muscle cells after SIN-1; type: cell-based
T3 construct: endogenous in cells; host or cells: primary human pulmonary artery smooth muscle cells
T3 sequence (Q13976 1-671): T1 sequence (P00516 1-671) with K265T, N275S
Method: In vitro activity of PKG was determined by measuring the transfer of the [g-32P] phosphate group of ATP to the specific PKG substrate, BPDEtide (Calbiochem) in the absence or presence of exogenous 2.5 mM cGMP. The assay was carried out in a total volume of […] containing 150 mM BPDEtide, 10 mM HEPES, 35 mM b-glycerophosphate, 4 mM magnesium acetate, 5 mM PKI (a synthetic protein kinase A inhibitor, Calbiochem), 0.5 mM EDTA, 200 mM ATP, and 2 mCi of [g-32P]ATP (specific activity 3,000 Ci/mmol, GE Amersham). The mixture was incubated at […] for 12 min and terminated by spotting […] aliquots of mixture on phosphocellulose papers (P81, Whatman). The papers were then washed and counted in a liquid scintillation counter. PKG activity is expressed as picmoles of 32P incorporated into PKG substrate per minute per milligram protein.
as §2, §1

Cav1−/− mice = assay: RVSP in Cav1−/− mice with PH; type: in vivo, mouse; conditions: 8 month old Cav1−/− mice; 5 mg/kg, i.p. daily for 6 wk
Method: RVSP was determined as follows. Briefly, following anesthesia, mice were prepared for catheterization. A 1.4 F pressure transducer catheter (Millar Instruments) was carefully inserted via the right external jugular vein into the right ventricle to obtain measurements of RVSP using the Acknowledge software (Biopac Systems, Inc.). To determine lung vascular resistance, mice were anesthetized and prepared for perfusion. Pulmonary arterial (Ppa) and venous (Pv) pressures were monitored continuously through the pulmonary arterial and left atrial cannula, which were connected to a pressure transducer. […] Ppa was measured at steady-state and was plotted against the flow, which was measured by weighing the effluent collected over a one-minute period. […]
To determine whether pharmacological inhibition of eNOS in Cav1^−/− mice can reverse PH, we administered N-Nitro-L-Arginine Methyl Ester (L-NAME), a NOS inhibitor, to Cav1^−/− mice following onset of PH. […] Data are expressed as mean±SD (n=5-7). *, P=0.023 WT versus Cav1^−/−;**, P=0.015 Cav-L versus Cav1^−/−; #, P>0.5 Cav-D versus Cav1^−/−. […] Data are expressed as mean±SD (n=5-7). *, P=0.002 WT versus Cav1^−/−; **, P=0.013 Cav-L versus Cav1^−/−; #, P=0.8 Cav-D versus Cav1^−/−.
Hemodynamic Measurements. RVSP was determined with a 1.4 F pressure transducer catheter (Millar Instruments) and the Acknowledge software (Biopac Systems, Inc.). […]

In the case of `NCCN(CCN)/[N+]([O-])=N/O` [DETA NONOate], the PKG activity (purified PKG-1) was “failed to suppress PKG activity”.

In the case of `N=c1c[n+](N2CCOCC2)[n-]o1` [SIN-1, 3-morpholinosydnonimine], the PKG tyrosine nitration (PKG-I; SIN-1 at 0.1 mM) was “only minimal PKG tyrosine nitration”, the PKG tyrosine nitration (PKG-I; SIN-1 concentration, 30 min) was “significant PKG tyrosine nitration; also recorded: marked PKG tyrosine nitration; also recorded: PKG1 tyrosine nitration” and the “PKG kinase activity after addition of cGMP” value (PKG; SIN-1 30 min, after addition of 2.5 mM of cGMP) was “significant decrease of PKG activity; also recorded: significantly decreased PKG kinase activity; also recorded: impaired kinase activity”. The “PKG kinase activity, basal” value (PKG; SIN-1 30 min, basal state) was “significant decrease of PKG activity; also recorded: significantly decreased PKG kinase activity; also recorded: impaired kinase activity” and the PKG kinase activity (PKG; SIN-1 at 0.1 mM) was “did not decrease PKG kinase activity”.

In the case of “manganese (III) tetrakis (1-methyl-4-pyridyl) porphyrin pentachloride [MnTMPyP]”, the RVSP (Cav1−/− mice) was “reduced RVSP”.
